In publication PMC6271742, “A Novel Phage-Library-Selected Peptide Inhibits Human TNF-α Binding to Its Receptors” (Molecules, 2014):
Bridges are numbered along the chain shown (N, C = ends). Roman numbers before positions name the chains, in order. Where no end group is shown, it is not given here.

What was measured:
biotinylated hTNF-α = test: Phage ELISA of selected clones; assay type: binding, human; settings: streptavidin-coated 96-well plates coated with 20 nM biotinylated hTNF-α; phage-displayed peptide
Description: Random 12-mer peptide phage library Ph.D.™-12 (New England Biolabs, Ipswich, MA, USA) was incubated with biotinylated hTNF-α. 10^11 phage, diluted in PBS (137 mM NaCl, 2 mM KCl, 10 mM Na2HPO4, 2 mM KH2PO4, pH 7.4) containing 0.1% (v/v) Tween 20 (PBST) and 3% bovine albumin (BSA) and incubated with 50 nM biotinylated hTNF-α o/n at 4 °C, was added to 100 μL Dynabeads-M280 coupled with streptavidin (Invitrogen¸ Waltham, MA, USA), saturated with 5% BSA in PBST, for 15 min at room temperature. After washing 10 times with PBST, bound phages were eluted with 5 μM adalimumab for 60 min at room temperature. The amplified phages were titered and underwent two further rounds of biopanning as described above, except that the concentration of biotinylated hTNF-α was diminished (20 nM and 10 nM for the second and third rounds of panning, respectively) and washing was performed using 0.5% (v/v) Tween 20.
In alternative to the selection described above we performed the following panning using SPR technology. Biotinylated hTNF-α was immobilized to the streptavidin (SA) sensor chip surface, obtaining final 2000 Resonance Units. […] For both pannings, the binding of selected clones to hTNF-α after the last round of panning was evaluated by phage ELISA in streptavidin-coated 96-well plates coated with 20 nM biotinylated hTNF-α.

[1] = biological target: T1, hTNF-α binding to adalimumab (Homo sapiens, UniProt P01375); test: SPR inhibition of hTNF-α binding to captured adalimumab; settings: 25 µM peptide, 10 nM hTNF-α, adalimumab captured via Protein A on CM5 chip, read-out: inhibition of TNF-α binding to adalimumab
T1 construct: peaks around 17,300, 34,700 and 52,100 Da, corresponding to monomeric, homodimeric and homotrimeric forms of hTNF-α; purchased Prospec
Description: The anti-hTNF-α monoclonal antibody adalimumab was captured on a protein-A-coated sensor chip. 10 nM hTNF-α was injected over the immobilized antibody in the presence of different concentrations (25, 10 and 1 µM) of the tetra-branched anti-TNF-α peptide (Figure 3A).
(§1) All the experiments were performed on a Biacore T100 instrument (GE Healthcare, Milan, Italy); materials were purchased from GE Healthcare unless otherwise specified. Adalimumab was a kind gift from Galeazzi, University of Siena. Biotinylated linear and tetra-branched TNF-peptides were immobilized on a SA sensor chip. Briefly, peptides diluted in HBS-EP+ were injected for 60 s at a flow rate of 10 µL/min, obtaining 300 and 700 RUs respectively. Different concentrations of hTNF-α, from 250 nM to 2 µM in HBS-EP+, were injected for 180 s at a flow rate of 75 µL/min onto immobilized peptides. Association and dissociation kinetic rate constants (kon and koff) and the equilibrium dissociation constant Kd were calculated using BIAevaluation 3.0 software. […] Adalimumab monoclonal antibody (1 µg/mL in HBS-EP+ for 45 s at a flow rate of 10 µL/min) was immobilized on a CM5 sensor chip previously coated with Protein A (6500 RUs). Competition experiments were carried out injecting 10 nM hTNF-α for 180 s at flow rate of 30 µL/min with various concentrations (1, 10 and 25 µM) of tetra-branched TNF-peptide. […]

[2] = system: homotrimeric form of hTNF-α; test: MALDI-TOF MS analysis of hTNF-α oligomer dissociation; assay type: biochemical, human; settings: 5 min at room temperature, linear mode
Description: To determine whether the anti-TNF-α peptide destabilized the oligomeric form of hTNF-α, we evaluated the distribution of monomeric, dimeric and trimeric hTNF-α by MS in the presence of increasing concentrations of anti-TNF-α peptide.
The anti-TNF-α peptide was incubated in a 3-fold or 10-fold molar excess with respect with hTNF-α at room temperature for 5 min. The dissociation of hTNF-α was analysed by mass spectrometry using a sinapinic acid matrix (Sigma-Aldrich) and a protein standard II (mass range ~10,000–70,000 Da, Brucker Daltonics) in an ultrafleXtreme MALDI-TOF/TOF mass spectrometer (Bruker Daltonics) in linear mode.

human TNF-α (hTNF-α) = biological target: T2, human TNF-α (hTNF-α) (Homo sapiens, UniProt P01375); test: SPR binding of hTNF-α to immobilized biotinylated peptides (Biacore T100); settings: hTNF-α 250 nM to 2 µM over immobilized peptide
T2 construct: peaks around 17,300, 34,700 and 52,100 Da, corresponding to monomeric, homodimeric and homotrimeric forms of hTNF-α; purchased Prospec
Description: hTNF-α was injected over linear and tetra-branched peptides previously immobilized on a Biacore T100 SA sensor chip. hTNF-α was flowed at concentrations ranging from 250 nM to 2 µM. To assess any non-specific binding, hTNF-α was also injected over an empty flow cell.
as §1

murine TNF-α = test: SPR specificity: binding of murine TNF-α to immobilized peptides; settings: data not shown

T1 sequence (P01375 77-233 limits assumed): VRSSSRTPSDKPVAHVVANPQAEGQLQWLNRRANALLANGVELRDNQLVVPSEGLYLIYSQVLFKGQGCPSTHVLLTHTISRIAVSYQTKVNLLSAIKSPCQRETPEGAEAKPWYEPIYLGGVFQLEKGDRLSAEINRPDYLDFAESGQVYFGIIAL
T2 sequence (P01375 77-233 limits assumed): as above

## HIHDDLLRYYGW
Biotinylated hTNF-α
  phage ELISA result for clones expressing the sequence (in words): positive

## I: HIHDDLLRYYGWKK-NH2 / II: HIHDDLLRYYGWK / III: HIHDDLLRYYGW / IV: HIHDDLLRYYGW (amide I:13-IV:C, I:14-II:C, II:13-III:C) [tetra-branched anti-TNF-α peptide]
[1]
  inhibition at 25 µM: ~80%
[2]; tenfold molar excess of peptide
  homo-dimeric hTNF-α peak in MS (in words): the homo-dimeric form also disappeared
[2]; threefold molar excess of peptide
  homo-trimeric hTNF-α peak in MS (in words): The peak corresponding to the homo-trimeric form disappeared

## I: HIHDDLLRYYGWKK-NH2 / II: HIHDDLLRYYGWK / III: HIHDDLLRYYGW / IV: HIHDDLLRYYGW (amide I:13-IV:C, I:14-II:C, II:13-III:C; C-terminus assumed) [tetra-branched peptide]
Human TNF-α (hTNF-α)
  hTNF-α binding (in words): bound hTNF-α in a dose-dependent manner
Murine TNF-α
  binding for murine TNF-α (in words): did not show any binding for murine TNF-α
